Results reported in ChEMBL document CHEMBL1201862, “PubChem BioAssay data set” (2004).
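Grown in 96-well plates, cells were treated for 48 hours with each compound at five concentrations. Insufficient inhibition: endpoint recorded as highest concentration tested. The concentration for 50% growth inhibition is given as GI50.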 Calls of active or inactive are those of the source. Cut-off read from the data, not from the text of the source: active = GI50 up to about 1.1 µM and inactive = higher.

What was measured:
Assay in all cases: NCI tumour cell line growth inhibition, 48 h
[1] = tested on: TK-10
[2] = tested on: SN12C
[3] = tested on: OVCAR-8
[4] = tested on: MOLT-4
[5] = tested on: RXF 393
[6] = tested on: U-251
[7] = tested on: NCI-H226
[8] = tested on: K562
[9] = tested on: NCI-H23
[10] = tested on: SK-MEL-2
[11] = tested on: UACC-62
[12] = tested on: HCT-15
[13] = tested on: SNB-75
[14] = tested on: SK-OV-3
[15] = tested on: ACHN
[16] = tested on: HOP-92
[17] = tested on: HCC 2998
[18] = tested on: CAKI-1
[19] = tested on: NCI-H522
[20] = tested on: COLO 205

Compound	GI50 [1]	GI50 [2]	GI50 [3]	GI50 [4]	GI50 [5]	GI50 [6]	GI50 [7]	GI50 [8]	GI50 [9]	GI50 [10]	GI50 [11]	GI50 [12] [µM]	GI50 [13]	GI50 [14]	GI50 [15]	GI50 [16]	GI50 [17]	GI50 [18]	GI50 [19]	GI50 [20]
CC1CCCCNC1=S (stereo not given)	> 10 µM (inactive)	> 10 µM (inactive)	> 10 µM (inactive)	> 10 µM (inactive)	> 10 µM (inactive)	> 10 µM (inactive)	> 10 µM (inactive)	> 10 µM (inactive)	> 10 µM (inactive)	> 10 µM (inactive)	> 10 µM (inactive)	> 10	> 10 µM (inactive)	> 10 µM (inactive)	> 10 µM (inactive)	> 10 µM (inactive)	–	–	–	–
Cn1c2ccccc2n2c(=O)c3cc([N+](=O)[O-])ccc3c(C#N)c12	> 100 µM (inactive)	–	> 100 µM (inactive)	> 100 µM (inactive)	> 100 µM (inactive)	> 100 µM (inactive)	> 100 µM (inactive)	> 100 µM (inactive)	> 100 µM (inactive)	> 100 µM (inactive)	> 100 µM (inactive)	> 100	56.2 µM (inactive)	> 100 µM (inactive)	75.3 µM (inactive)	–	> 100 µM (inactive)	> 10 µM (inactive)	> 100 µM (inactive)	> 100 µM (inactive)
O=P(O)(Cc1ccccc1)c1ccccc1-c1ccccc1	> 100 µM (inactive)	> 100 µM (inactive)	> 100 µM (inactive)	> 100 µM (inactive)	54.6 µM (inactive)	57.1 µM (inactive)	> 100 µM (inactive)	> 100 µM (inactive)	> 100 µM (inactive)	> 100 µM (inactive)	> 100 µM (inactive)	> 100	> 100 µM (inactive)	> 100 µM (inactive)	> 100 µM (inactive)	–	> 100 µM (inactive)	> 100 µM (inactive)	> 100 µM (inactive)	57.8 µM (inactive)
[N-]=[N+]=NC[C@H]1OCO[C@H](CN=[N+]=[N-])[C@H]2OCCOCCOc3ccccc3OCCOCCO[C@@H]21	> 100 µM (inactive)	> 100 µM (inactive)	> 100 µM (inactive)	> 100 µM (inactive)	> 100 µM (inactive)	> 100 µM (inactive)	> 100 µM (inactive)	> 100 µM (inactive)	> 100 µM (inactive)	> 100 µM (inactive)	> 100 µM (inactive)	> 100	76.4 µM (inactive)	> 100 µM (inactive)	–	–	> 100 µM (inactive)	> 100 µM (inactive)	> 100 µM (inactive)	> 100 µM (inactive)
C=C(Br)CN(C#N)CC(=C)Br	> 100 µM (inactive)	> 100 µM (inactive)	> 100 µM (inactive)	> 100 µM (inactive)	> 100 µM (inactive)	> 100 µM (inactive)	> 100 µM (inactive)	> 100 µM (inactive)	> 100 µM (inactive)	> 100 µM (inactive)	> 100 µM (inactive)	> 100	> 100 µM (inactive)	> 100 µM (inactive)	> 100 µM (inactive)	–	> 100 µM (inactive)	> 100 µM (inactive)	> 100 µM (inactive)	> 100 µM (inactive)
Cn1c(=O)c2ccccc2c2nc3ccccc3nc21	45.5 µM (inactive)	> 100 µM (inactive)	> 100 µM (inactive)	> 100 µM (inactive)	> 100 µM (inactive)	> 100 µM (inactive)	> 100 µM (inactive)	> 100 µM (inactive)	> 100 µM (inactive)	> 100 µM (inactive)	> 100 µM (inactive)	> 100	25.2 µM (inactive)	37.2 µM (inactive)	> 100 µM (inactive)	–	> 100 µM (inactive)	–	–	> 100 µM (inactive)
O=c1n(C2CCCCC2)c(=C(Cl)Cl)c(=C(Cl)Cl)n1C1CCCCC1	> 100 µM (inactive)	> 100 µM (inactive)	> 100 µM (inactive)	> 100 µM (inactive)	> 100 µM (inactive)	> 100 µM (inactive)	> 100 µM (inactive)	> 100 µM (inactive)	> 100 µM (inactive)	> 100 µM (inactive)	> 100 µM (inactive)	> 100	> 100 µM (inactive)	> 100 µM (inactive)	> 100 µM (inactive)	–	> 100 µM (inactive)	–	> 100 µM (inactive)	> 100 µM (inactive)
COC(=O)c1c(-c2ccccc2)cc2c3cc(-c4ccccc4)c(C(=O)OC)n3c3ccccc3n12	> 100 µM (inactive)	> 100 µM (inactive)	> 100 µM (inactive)	> 100 µM (inactive)	> 44.8 µM (inactive)	> 100 µM (inactive)	> 100 µM (inactive)	> 100 µM (inactive)	> 100 µM (inactive)	> 100 µM (inactive)	> 100 µM (inactive)	> 100	20.1 µM (inactive)	> 100 µM (inactive)	> 100 µM (inactive)	–	> 100 µM (inactive)	> 100 µM (inactive)	> 91 µM (inactive)	> 100 µM (inactive)
CC1CCC2(CC1)NN=c1s/c(=C\c3ccc(O)cc3)c(=O)n1N2 (stereo not given)	> 100 µM (inactive)	> 100 µM (inactive)	> 100 µM (inactive)	> 100 µM (inactive)	> 100 µM (inactive)	> 100 µM (inactive)	> 100 µM (inactive)	> 100 µM (inactive)	> 100 µM (inactive)	–	> 100 µM (inactive)	–	63.5 µM (inactive)	> 100 µM (inactive)	–	–	> 100 µM (inactive)	–	> 100 µM (inactive)	> 100 µM (inactive)
CCOC(=O)NC(=O)c1cn(CCCCCCOC(=O)NCCCCCCNC(=O)OCCCCCCn2cc(C(=O)NC(=O)OCC)c(=O)[nH]c2=O)c(=O)[nH]c1=O	–	> 100 µM (inactive)	> 100 µM (inactive)	> 100 µM (inactive)	> 100 µM (inactive)	> 100 µM (inactive)	> 100 µM (inactive)	> 100 µM (inactive)	–	> 100 µM (inactive)	> 100 µM (inactive)	> 100	> 100 µM (inactive)	> 100 µM (inactive)	> 100 µM (inactive)	–	> 100 µM (inactive)	> 100 µM (inactive)	> 100 µM (inactive)	> 100 µM (inactive)
Oc1ccc2ccccc2c1Cc1c(O)ccc2ccccc12	21 µM (inactive)	16.2 µM (inactive)	15.6 µM (inactive)	15 µM (inactive)	16 µM (inactive)	15.4 µM (inactive)	20.9 µM (inactive)	8.83 µM (inactive)	16.1 µM (inactive)	18.6 µM (inactive)	14 µM (inactive)	14.8	20.5 µM (inactive)	17.5 µM (inactive)	17.3 µM (inactive)	–	17.4 µM (inactive)	17.1 µM (inactive)	10.7 µM (inactive)	17.9 µM (inactive)
